Source: ChEMBL document CHEMBL1909046, “DrugMatrix in vitro pharmacology data”

Tests used:
[1] = biological target: Delta-type opioid receptor (Homo sapiens, UniProt P41143); assay type: cell membranes, HEK293, Membrane; conditions: hek293
[2] = biological target: Mitogen-activated protein kinase 14 (Homo sapiens, UniProt Q16539); design: species or system Escherichia coli;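 note: inhibition of p38alpha enzyme activity in a biochemical kinase assay, with myelin basic protein serving as substrate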
Sequence of Mitogen-activated protein kinase 14 (Q16539 whole entry): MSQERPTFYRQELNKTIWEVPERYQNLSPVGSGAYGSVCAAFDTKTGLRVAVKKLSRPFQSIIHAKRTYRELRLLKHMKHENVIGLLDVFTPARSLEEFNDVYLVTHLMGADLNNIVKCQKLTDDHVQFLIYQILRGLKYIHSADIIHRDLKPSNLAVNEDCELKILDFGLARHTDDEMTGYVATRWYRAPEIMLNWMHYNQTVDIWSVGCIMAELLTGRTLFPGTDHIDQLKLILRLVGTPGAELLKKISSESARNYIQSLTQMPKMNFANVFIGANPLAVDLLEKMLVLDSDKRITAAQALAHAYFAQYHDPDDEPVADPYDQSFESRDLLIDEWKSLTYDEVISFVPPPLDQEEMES

[3] = biological target: T1, Muscarinic acetylcholine receptor M2 (Homo sapiens, UniProt P08172); assay type: cell membranes, CHO-K1, Membrane
T1 sequence (P08172 whole entry): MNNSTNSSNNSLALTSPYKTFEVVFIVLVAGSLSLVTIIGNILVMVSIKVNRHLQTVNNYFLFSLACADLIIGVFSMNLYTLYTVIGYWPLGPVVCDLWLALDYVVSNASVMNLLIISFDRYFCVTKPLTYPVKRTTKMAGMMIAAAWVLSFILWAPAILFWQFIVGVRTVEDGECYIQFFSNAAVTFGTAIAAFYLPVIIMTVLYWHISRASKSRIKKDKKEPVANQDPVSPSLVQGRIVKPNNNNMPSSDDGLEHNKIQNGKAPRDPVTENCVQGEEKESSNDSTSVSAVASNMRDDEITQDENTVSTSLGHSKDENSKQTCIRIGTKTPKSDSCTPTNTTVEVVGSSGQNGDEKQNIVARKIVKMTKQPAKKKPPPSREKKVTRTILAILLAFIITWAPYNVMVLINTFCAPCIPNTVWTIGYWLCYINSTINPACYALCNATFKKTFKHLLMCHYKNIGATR

Melanocortin receptor 4 = Melanocortin receptor 4 (Homo sapiens, UniProt P32245); assay type: cell membranes, Membrane; conditions: hek293
Sequence of Melanocortin receptor 4 (P32245 whole entry): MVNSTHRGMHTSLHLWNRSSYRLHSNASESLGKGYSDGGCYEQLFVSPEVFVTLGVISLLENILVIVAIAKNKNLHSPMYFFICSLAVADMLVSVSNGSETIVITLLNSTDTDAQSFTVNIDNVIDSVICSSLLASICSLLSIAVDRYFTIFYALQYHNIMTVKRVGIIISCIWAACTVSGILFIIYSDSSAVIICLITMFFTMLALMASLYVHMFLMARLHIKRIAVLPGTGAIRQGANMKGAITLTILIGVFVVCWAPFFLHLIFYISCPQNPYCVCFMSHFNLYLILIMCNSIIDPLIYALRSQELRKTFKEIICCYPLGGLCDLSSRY

Vasopressin V1a receptor = Vasopressin V1a receptor (Homo sapiens, UniProt P37288); assay type: cell membranes, Membrane; conditions: hek293
Sequence of Vasopressin V1a receptor (P37288 whole entry): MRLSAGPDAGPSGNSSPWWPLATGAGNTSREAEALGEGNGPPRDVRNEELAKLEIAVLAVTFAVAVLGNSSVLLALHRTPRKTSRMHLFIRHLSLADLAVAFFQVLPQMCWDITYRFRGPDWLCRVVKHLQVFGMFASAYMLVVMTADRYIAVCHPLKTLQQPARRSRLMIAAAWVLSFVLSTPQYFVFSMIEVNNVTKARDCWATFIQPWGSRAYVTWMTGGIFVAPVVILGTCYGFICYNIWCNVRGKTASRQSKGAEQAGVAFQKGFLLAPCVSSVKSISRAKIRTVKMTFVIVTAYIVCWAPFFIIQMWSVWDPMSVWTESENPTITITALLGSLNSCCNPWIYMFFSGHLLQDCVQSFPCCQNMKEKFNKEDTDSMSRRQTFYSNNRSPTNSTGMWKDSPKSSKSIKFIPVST

Neutrophil elastase = biological target: T2, Neutrophil elastase (Homo sapiens, UniProt P08246); assay type: tissue-based;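 note: inhibition of neutrophil elastase enzyme activity, measured with a p-nitroanilide-linked peptide substrate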
T2 sequence (P08246 whole entry): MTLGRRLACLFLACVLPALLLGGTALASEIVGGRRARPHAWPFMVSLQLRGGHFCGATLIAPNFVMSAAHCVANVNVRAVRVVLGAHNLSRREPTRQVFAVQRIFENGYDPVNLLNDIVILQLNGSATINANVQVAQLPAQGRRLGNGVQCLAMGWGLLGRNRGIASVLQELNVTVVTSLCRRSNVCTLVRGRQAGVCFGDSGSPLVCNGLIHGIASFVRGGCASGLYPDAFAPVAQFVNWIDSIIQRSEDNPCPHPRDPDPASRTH

[4] = biological target: 5-hydroxytryptamine receptor 6 (Homo sapiens, UniProt P50406); assay type: cell membranes, HeLa, Membrane; conditions: for Ki: read-out: Ki
Sequence of 5-hydroxytryptamine receptor 6 (P50406 whole entry): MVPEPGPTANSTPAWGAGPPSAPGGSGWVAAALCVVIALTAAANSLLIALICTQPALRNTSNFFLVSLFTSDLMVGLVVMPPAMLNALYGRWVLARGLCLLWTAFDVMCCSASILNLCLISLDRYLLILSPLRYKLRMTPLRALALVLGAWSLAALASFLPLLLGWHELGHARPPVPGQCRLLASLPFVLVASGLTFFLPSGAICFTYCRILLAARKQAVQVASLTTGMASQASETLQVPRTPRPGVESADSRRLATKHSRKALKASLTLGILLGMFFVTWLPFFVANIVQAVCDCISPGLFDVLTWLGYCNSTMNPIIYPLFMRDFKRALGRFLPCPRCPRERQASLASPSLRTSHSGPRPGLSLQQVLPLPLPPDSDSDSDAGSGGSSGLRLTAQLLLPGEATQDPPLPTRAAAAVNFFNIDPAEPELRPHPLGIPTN
Note: in other assays of this panel Not Active means under 50% inhibition at 10 µM.

Sequence of Delta-type opioid receptor (P41143 whole entry): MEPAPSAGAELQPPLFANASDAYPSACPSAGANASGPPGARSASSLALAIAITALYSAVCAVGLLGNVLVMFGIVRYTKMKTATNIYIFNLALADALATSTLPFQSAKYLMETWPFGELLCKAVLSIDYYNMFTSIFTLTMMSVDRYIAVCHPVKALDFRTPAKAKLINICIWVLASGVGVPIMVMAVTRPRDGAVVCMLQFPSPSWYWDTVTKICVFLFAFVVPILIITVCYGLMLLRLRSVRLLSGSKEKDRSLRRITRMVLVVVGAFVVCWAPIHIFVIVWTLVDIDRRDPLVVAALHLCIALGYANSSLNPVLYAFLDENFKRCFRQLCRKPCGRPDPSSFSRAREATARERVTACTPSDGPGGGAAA

SMILES	IC50 [1]	IC50 [2]	IC50 ([3]; cho-k1)	IC50 (Melanocortin receptor 4)	IC50 (Vasopressin V1a receptor)	IC50 (Neutrophil elastase)	IC50 ([4]; hela)	IC50 ([4]; read-out: IC50)	Ki [4]	IC50 ([3]; read-out: IC50)	Ki ([3]; read-out: Ki)
Cc1cc2c(s1)Nc1ccccc1N=C2N1CCN(C)CC1 [OLANZAPINE]	Not Active	Not Active	Not Active	Not Active	Not Active	Not Active	–	–	–	–	–
CC1(C)[C@H](C(=O)O)N2C(=O)C[C@H]2S1(=O)=O [SULBACTAM]	Not Active	Not Active	Not Active	Not Active	Not Active	Not Active	Not Active	–	–	–	–
Oc1ccc(/C=C/c2cc(O)cc(O)c2)cc1 [RESVERATROL]	Not Active	Not Active	Not Active	Not Active	Not Active	Not Active	Not Active	–	–	–	–
O=C1CC[C@@]2(O)[C@H]3Cc4ccc(O)c5c4[C@@]2(CCN3CC2CC2)[C@H]1O5 [NALTREXONE]	–	Not Active	Not Active	Not Active	Not Active	Not Active	Not Active	–	–	–	–
Cc1nnc(NS(=O)(=O)c2ccc(N)cc2)s1 [SULFAMETHIZOLE]	Not Active	Not Active	Not Active	Not Active	Not Active	Not Active	Not Active	–	–	–	–
C=CCc1ccc2c(c1)OCO2 [SAFROLE]	Not Active	Not Active	Not Active	Not Active	Not Active	Not Active	Not Active	–	–	–	–
Cc1cn([C@H]2C=C[C@@H](CO)O2)c(=O)[nH]c1=O [STAVUDINE]	Not Active	Not Active	Not Active	Not Active	Not Active	Not Active	Not Active	–	–	–	–
CC1=C(/C=C/C(C)=C/C=C/C(C)=C/C(=O)O)C(C)(C)CCC1 [TRETINOIN]	Not Active	Not Active	Not Active	Not Active	Not Active	Not Active	Not Active	–	–	–	–
Nc1nc(N)c2nc(-c3ccccc3)c(N)nc2n1	Not Active	Not Active	Not Active	Not Active	Not Active	Not Active	Not Active	–	–	–	–
CN1C(=O)OC(C)(C)C1=O [TRIMETHADIONE]	Not Active	Not Active	Not Active	Not Active	Not Active	Not Active	Not Active	–	–	–	–
Cc1ccc(S(=O)(=O)NC(=O)NN2CCCCCC2)cc1 [TOLAZAMIDE]	Not Active	Not Active	Not Active	Not Active	Not Active	Not Active	Not Active	–	–	–	–
O=C(O)c1cc(/N=N/c2ccc(S(=O)(=O)Nc3ccccn3)cc2)ccc1O [SULFASALAZINE]	Not Active	Not Active	Not Active	Not Active	Not Active	Not Active	Not Active	–	–	–	–
CCN(CC)C(=S)SSC(=S)N(CC)CC	Not Active	Not Active	Not Active	Not Active	Not Active	Not Active	–	16000 nM	7430 nM	–	–
CS(=O)(=O)c1ccc(C2=C(c3ccccc3)C(=O)OC2)cc1 [ROFECOXIB]	Not Active	Not Active	Not Active	Not Active	Not Active	Not Active	Not Active	–	–	–	–
Cc1cnc(NC(=O)C2=C(O)c3ccccc3S(=O)(=O)N2C)s1 [MELOXICAM]	Not Active	Not Active	Not Active	Not Active	Not Active	Not Active	Not Active	–	–	–	–
C1CCN2C[C@@H]3C[C@@H](CN4CCCC[C@@H]34)[C@H]2C1 [SPARTEINE]	Not Active	Not Active	Not Active	Not Active	Not Active	Not Active	Not Active	–	–	–	–

SMILES	IC50 [1]	IC50 [2]	IC50 ([3]; cho-k1)	IC50 (Melanocortin receptor 4)	IC50 (Vasopressin V1a receptor)	IC50 (Neutrophil elastase)	IC50 ([4]; hela)	IC50 ([4]; read-out: IC50)	Ki [4]	IC50 ([3]; read-out: IC50)	Ki ([3]; read-out: Ki)
CO[C@@H]1[C@@H](OC)[C@H](C)[C@@](O)(CC(=O)O)O[C@H]1[C@H](C)[C@H]1O[C@@]2(CC[C@@](C)([C@H]3CC[C@@](C)([C@@H]4O[C@@H]([C@H]5O[C@](C)(O)[C@H](C)C[C@@H]5C)C[C@@H]4O[C@@H]4C[C@H](OC)[C@@H](OC)[C@H](C)O4)O3)O2)C[C@H](O)[C@H]1C.N [MADURAMICIN]	Not Active	Not Active	Not Active	Not Active	Not Active	Not Active	Not Active	–	–	–	–
CC[C@@]1(O)C(=O)OCc2c1cc1n(c2=O)Cc2cc3c(CN(C)C)c(O)ccc3nc2-1 [TOPOTECAN]	Not Active	Not Active	Not Active	Not Active	Not Active	Not Active	Not Active	–	–	–	–
C#C[C@]1(O)CC[C@H]2[C@@H]3[C@H](C)CC4=C(CCC(=O)C4)[C@H]3CC[C@@]21C [TIBOLONE]	Not Active	Not Active	Not Active	Not Active	Not Active	Not Active	Not Active	–	–	–	–
C[N+]1(C)[C@@H]2C[C@@H](OC(=O)[C@H](CO)c3ccccc3)C[C@H]1[C@@H]1O[C@@H]12.[Br-] [METHSCOPOLAMINE BROMIDE]	Not Active	Not Active	–	Not Active	Not Active	Not Active	Not Active	–	–	–	–
CC[C@H](C)[C@@H](CO[C@@H](Cc1ccccc1)C(=O)N[C@@H](CCS(C)(=O)=O)C(=O)OC(C)C)NC[C@@H](N)CS	Not Active	Not Active	–	Not Active	Not Active	Not Active	Not Active	–	–	3570 nM	1270 nM
CCN1CCCC1CNC(=O)c1cc(S(N)(=O)=O)ccc1OC (configuration not stated) [SULPIRIDE]	Not Active	Not Active	Not Active	Not Active	Not Active	Not Active	Not Active	–	–	–	–
CC[C@H](C)C(=O)O[C@H]1CCC=C2C=C[C@H](C)[C@H](CC[C@@H]3C[C@@H](O)CC(=O)O3)[C@H]21 [MEVASTATIN]	Not Active	Not Active	Not Active	Not Active	Not Active	Not Active	Not Active	–	–	–	–
C[C@]12CCC(=O)C[C@@H]1CC[C@@H]1[C@@H]2CC[C@]2(C)[C@@H](O)CC[C@@H]12 [STANOLONE]	Not Active	Not Active	Not Active	Not Active	Not Active	Not Active	Not Active	–	–	–	–
CC(N)C12CC3CC(CC(C3)C1)C2 (configuration not stated) [RIMANTADINE]	Not Active	Not Active	Not Active	Not Active	Not Active	Not Active	Not Active	–	–	–	–
Cc1cccc(C)c1NC(=O)C(C)N (configuration not stated) [TOCAINIDE]	Not Active	Not Active	Not Active	Not Active	Not Active	Not Active	Not Active	–	–	–	–
CCN(CC)N=O [N-NITROSODIETHYLAMINE]	Not Active	Not Active	Not Active	Not Active	Not Active	Not Active	Not Active	–	–	–	–
CNCCCC12CCC(c3ccccc31)c1ccccc12 [MAPROTILINE]	Not Active	Not Active	–	Not Active	Not Active	Not Active	–	892 nM	414 nM	–	–
CN(C)CCC=C1c2ccccc2COc2ccccc21 [DOXEPIN]	Not Active	Not Active	–	Not Active	Not Active	Not Active	–	–	–	–	–
CCC(C)(C)C(=O)O[C@H]1C[C@@H](C)C=C2C=C[C@H](C)[C@H](CC[C@@H]3C[C@@H](O)CC(=O)O3)[C@H]21 [SIMVASTATIN]	Not Active	Not Active	Not Active	Not Active	Not Active	Not Active	Not Active	–	–	–	–
CN1C[C@H](CNC(=O)OCc2ccccc2)C[C@@H]2c3cccc4c3c(cn4C)C[C@H]21 [METERGOLINE]	Not Active	Not Active	Not Active	Not Active	Not Active	Not Active	–	28 nM	13 nM	–	–
CCN(CC)CCNC(=O)c1cc(Cl)c(N)cc1OC [METOCLOPRAMIDE]	Not Active	Not Active	Not Active	Not Active	Not Active	Not Active	Not Active	–	–	–	–
